Laboratory results: US20170121683A1, “ARYL HYDROCARBON RECEPTOR DISRUPTION AND ENHANCEMENT” (priority 2015, published 2017)

What was measured:
[1] = tested on: hESC-derived non-adherent hematopoietic progenitor cells; test: Hematopoietic colony-forming unit (CFU) assay (Example 2); type: cell-based, human; conditions: cells harvested at Day 6+5, 14 days in Methocult, n=3
From the text: FIG. 9A. Non-adherent hematopoietic progenitor cells derived from hESCs differentiated in the presence of SR-1, TCDD, or DMSO controls were harvested at Day 6+5 and seeded at 50,000 cells/dish in a standard methylcellulose colony-forming unit assay (CFU). Colonies were counted for each treatment group following 2 weeks of culture and scored for the following morphological subsets: BFU-E: burst-forming unit-erythroid; CFU-E: colony-forming unit-erythroid; CFU-GM: colony-forming unit-granulocyte, macrophage, CFU-M: colony-forming unit-macrophage; CFU-GEMM: colony-forming unit-granulocyte, erythroid, macrophage, megakaryocyte. n=3, error bars represent SEM of the total number of colonies/50,000 cells seeded, *p<0.05 as assessed with one-way ANOVA+Tukey-Kramer multiple comparisons post-hoc test. FIG. 9B. Non-adherent hematopoietic progenitor cells derived from hESCs differentiated in the presence of SR-1, TCDD, or DMSO controls were harvested at Day 6+3, Day 6+6, and Day 6+9 time points and probed for gene expression by quantitative real-time PCR (qRT-PCR). […]
Day 6+5 spin-EB non-adherent fractions were resuspended in IMDM. […] Plates were incubated for 14 days and subsequently counted and phenotypically scored using standard criteria (Kaufman et al. Proc. Natl. Acad. Sci. U.S.A. 2001; 98(19):10716-21).

[2] = tested on: hESC-derived hematopoietic cells; test: NK cell differentiation from spin-EBs on OP9-DL1, flow cytometry (Example 2); type: cell-based, human; conditions: Days 11+21 and 11+28, 1 μM SR-1 or 10 nM TCDD
Description: FIG. 13A. Schema of hESC differentiation into lymphoid cells as spin-embryoid bodies (spin-EBs). hESCs are made into spin-EBs at Day 0 and cultured in Stage 1 conditions with defined cytokines to promote mesoderm development for 11 days. At Day 11, spin-EBs are transferred onto OP9-DL1 in the presence of NK cell differentiation media (NKDM) to promote lymphoid differentiation. Cells are treated beginning at Day 11+0 with either 1 μM SR-1, 10 nM TCDD, or DMSO vehicle control with media exchanges and/or harvesting performed every week for up to 4 weeks. FIG. 13B. At Day 11, differentiated spin-EBs (photo) are phenotyped for CD34^+CD45^+ expression and transferred to OP9-DL1 stroma in NKDM. Non-adherent hematopoietic cells cultured either in the presence of DMSO, SR-1, or TCDD were assessed for developing NK cell immunophenotype based on CD56^+CD45^+ expression at Days 11+21, and 11+28; representative flow cytometry plots from one differentiation are shown. FIG. 13C. Quantification of fold-change in total percentage of CD56^+CD45^+ cells at both Day 11+21 and Day 11+28 when treated with DMSO, SR-1, or TCDD. SR-1 and TCDD treatments for each differentiation are normalized to DMSO controls. n=3 independent differentiation experiments, error bars represent SEM, *p<0.05 as assessed with two-way ANOVA+Tukey-Kramer multiple comparisons post-hoc test. FIG. 13D. […]

SMILES	total number of colonies / 50,000 cells seeded [1] [colonies]	development of NK cells (CD56+CD45+) compared to DMSO treated controls [2]
CC(C)n1cnc2c(NCCc3ccc(O)cc3)nc(-c3csc4ccccc34)nc21 [SR-1, StemReginin-1]	245.67±64.4	increased development of NK cells
Clc1cc2c(cc1Cl)Oc1cc(Cl)c(Cl)cc1O2 [TCDD, 2,3,7,8-tetrachlorodibenzo-p-dioxin]	28.3±2.67	fewer phenotypic NK cells
